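Compound exposure: 48 hours, 5 concentrations, 96-well plates. The concentration for 50% growth inhibition is given as GI50.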 The source made the active and inactive calls. No stated cut-off is given here; in the data, active = GI50 up to about 1.1 µM and inactive = higher.
What was measured:
Assay in all cases: NCI anticancer screen, dose series, 48 h
[1] = system: HCC 2998
[2] = system: MCF7
[3] = system: SNB-19
[4] = system: BT-549
[5] = system: NCI-H226
[6] = system: UACC-257
[7] = system: SK-MEL-28
[8] = system: SNB-75
[9] = system: MOLT-4
[10] = system: MDA-N
[11] = system: HCT-15
[12] = system: U-251
[13] = system: HOP-92
[14] = system: OVCAR-5
[15] = system: EKVX
[16] = system: A549
[17] = system: HT-29
[18] = system: SF-268
[19] = system: Hs-578T
[20] = system: SK-MEL-5

| SMILES | GI50 [1] | GI50 [2] | GI50 [3] | GI50 [4] | GI50 [5] | GI50 [6] | GI50 [7] | GI50 [8] | GI50 [9] | GI50 [10] | GI50 [11] [µM] | GI50 [12] | GI50 [13] | GI50 [14] | GI50 [15] | GI50 [16] | GI50 [17] | GI50 [18] | GI50 [19] | GI50 [20] |
| --- | --- | --- | --- | --- | --- | --- | --- | --- | --- | --- | --- | --- | --- | --- | --- | --- | --- | --- | --- | --- |
| CCCC(=O)O[C@H]1C=C2C[C@@]34SS[C@]5(CC6=C[C@H](OC(C)=O)[C@@H]7O[C@@H]7[C@H]6N5C3=O)C(=O)N4[C@@H]2[C@H]2O[C@H]21 | 0.00923 µM (active) | 0.0132 µM (active) | 0.0126 µM (active) | 0.021 µM (active) | 0.0766 µM (active) | 0.0181 µM (active) | 0.0251 µM (active) | 0.0353 µM (active) | 0.00904 µM (active) | 0.00817 µM (active) | 0.0224 | 0.00822 µM (active) | 0.02 µM (active) | 0.0112 µM (active) | 0.0178 µM (active) | 0.0311 µM (active) | 0.00569 µM (active) | 0.00775 µM (active) | 0.0203 µM (active) | 0.12 µM (active) |
| Nc1nc(Cl)c(N)c(NCC2(CO)CCC(OCc3ccccc3)C2)n1 (stereo not drawn) | > 100 µM (inactive) | 47.8 µM (inactive) | > 100 µM (inactive) | 61.9 µM (inactive) | 0.433 µM (active) | 0.522 µM (active) | > 100 µM (inactive) | > 100 µM (inactive) | 31.7 µM (inactive) | > 100 µM (inactive) | 61.9 | > 100 µM (inactive) | > 100 µM (inactive) | > 100 µM (inactive) | 0.931 µM (active) | > 100 µM (inactive) | > 100 µM (inactive) | > 100 µM (inactive) | > 100 µM (inactive) | 0.305 µM (active) |
| Nc1ccc(S(=O)(=O)Nc2nc3ccccc3nc2Nc2ccc(S(N)(=O)=O)cc2)cc1 |  | 57.8 µM (inactive) | 25.2 µM (inactive) | 20.2 µM (inactive) | 56.4 µM (inactive) | 46 µM (inactive) | 30.2 µM (inactive) | 13.6 µM (inactive) | 15.4 µM (inactive) | 56.6 µM (inactive) | 37.7 | 27.7 µM (inactive) | 17.6 µM (inactive) | > 100 µM (inactive) | 75.7 µM (inactive) | 47.1 µM (inactive) | 57.8 µM (inactive) | 17.5 µM (inactive) | 23 µM (inactive) | 49.8 µM (inactive) |
| O=C(O)C(Br)C(Br)C(=O)O (stereo not drawn) | > 100 µM (inactive) | > 100 µM (inactive) | > 100 µM (inactive) | > 100 µM (inactive) | > 100 µM (inactive) | > 100 µM (inactive) | > 100 µM (inactive) | > 100 µM (inactive) |  | > 100 µM (inactive) | > 100 | > 100 µM (inactive) | > 100 µM (inactive) | > 100 µM (inactive) | > 100 µM (inactive) | > 100 µM (inactive) | > 100 µM (inactive) | > 100 µM (inactive) | > 100 µM (inactive) | > 100 µM (inactive) |
| COc1cc(CNNC(N)=S)cc(OC)c1OC | > 100 µM (inactive) | > 100 µM (inactive) | > 100 µM (inactive) | 22.3 µM (inactive) | > 100 µM (inactive) | > 100 µM (inactive) | > 100 µM (inactive) | > 100 µM (inactive) | > 100 µM (inactive) | > 100 µM (inactive) | > 100 | > 100 µM (inactive) | 3.46 µM (inactive) | 95.1 µM (inactive) | > 100 µM (inactive) | > 100 µM (inactive) | > 100 µM (inactive) | > 100 µM (inactive) | > 100 µM (inactive) | > 100 µM (inactive) |
| CC(C)C1=CC(=O)[C@@](C)(C2[C@H](O)C[C@@]3(C)[C@@H]4CC=C5[C@@H](CC[C@@H](OC6OCC(O)C(O)C6OC6OC(C)C(O)C(O)C6O)C5(C)C)[C@]4(C)C(=O)C[C@]23C)O1 (stereo partly drawn) | > 100 µM (inactive) | > 100 µM (inactive) | > 100 µM (inactive) | > 100 µM (inactive) | > 100 µM (inactive) |  | > 100 µM (inactive) | > 100 µM (inactive) | > 100 µM (inactive) | > 100 µM (inactive) | > 100 | > 100 µM (inactive) | > 100 µM (inactive) | > 100 µM (inactive) | > 100 µM (inactive) | > 100 µM (inactive) | > 100 µM (inactive) | > 100 µM (inactive) | > 100 µM (inactive) | > 100 µM (inactive) |
| Nc1nc(N)nc(CCCc2nc(N)nc(N)n2)n1 |  | > 100 µM (inactive) | > 100 µM (inactive) | > 100 µM (inactive) | > 100 µM (inactive) | > 100 µM (inactive) | > 100 µM (inactive) | > 100 µM (inactive) | > 100 µM (inactive) | > 100 µM (inactive) | > 100 | > 100 µM (inactive) | > 100 µM (inactive) | > 100 µM (inactive) | > 100 µM (inactive) | > 100 µM (inactive) | > 100 µM (inactive) | > 100 µM (inactive) | > 100 µM (inactive) | > 100 µM (inactive) |
| O=C1NC(NNc2ccccc2)=N/C1=C\c1ccccc1O | 80.9 µM (inactive) | 40.4 µM (inactive) | > 100 µM (inactive) | 21 µM (inactive) | 86.1 µM (inactive) | 40.9 µM (inactive) | > 100 µM (inactive) | 43.4 µM (inactive) | 51.6 µM (inactive) | 71.3 µM (inactive) | 44.2 | 70.5 µM (inactive) | 55 µM (inactive) | > 100 µM (inactive) | 66.8 µM (inactive) | 72.6 µM (inactive) | 61 µM (inactive) | > 100 µM (inactive) | > 100 µM (inactive) |  |
| CCOC(=O)/C(=C\c1ccc(F)cc1)C(C)=O | 13.5 µM (inactive) | 29.4 µM (inactive) | 33.8 µM (inactive) | 21.5 µM (inactive) | 35.5 µM (inactive) | 19.2 µM (inactive) |  | 25.1 µM (inactive) | 26.5 µM (inactive) | 37.8 µM (inactive) | 20.7 | 19.1 µM (inactive) | 15.1 µM (inactive) | 58.6 µM (inactive) | 22.3 µM (inactive) | 45.3 µM (inactive) | 24.4 µM (inactive) | 29.1 µM (inactive) | 36.1 µM (inactive) | 24.4 µM (inactive) |
| O=C(O)CCCc1ccc2ccc3ccccc3c2c1 |  | > 100 µM (inactive) | > 100 µM (inactive) | 69 µM (inactive) | 78.2 µM (inactive) | 56.2 µM (inactive) | 81.8 µM (inactive) | 14 µM (inactive) | 65.5 µM (inactive) | > 100 µM (inactive) | 51.1 | 71.1 µM (inactive) | 72.6 µM (inactive) | 73.5 µM (inactive) | > 100 µM (inactive) | 61 µM (inactive) | 83.9 µM (inactive) | 66.2 µM (inactive) | 38.8 µM (inactive) | 55.2 µM (inactive) |
| Cc1cc(NS(=O)(=O)c2ccc(Nc3c4ccccc4nc4c(C(=O)NCCO)cccc34)cc2)no1 | 40.7 µM (inactive) | 14.9 µM (inactive) | 37.4 µM (inactive) | 16.8 µM (inactive) |  | 75.3 µM (inactive) | 30.3 µM (inactive) | 7.19 µM (inactive) | 7.41 µM (inactive) | 35.8 µM (inactive) | 24.9 | 27.7 µM (inactive) | 20.5 µM (inactive) | 13.3 µM (inactive) | 60 µM (inactive) | 37.3 µM (inactive) | 29 µM (inactive) | 30.5 µM (inactive) | 21.2 µM (inactive) | 23.4 µM (inactive) |
| Cn1c(=O)c2c(nc(C(=N)SCC(=O)O)n2C)n(C)c1=O |  | 38.5 µM (inactive) | 52.7 µM (inactive) | 41.1 µM (inactive) | 58.9 µM (inactive) | 29.1 µM (inactive) | 37.7 µM (inactive) | 41.2 µM (inactive) | 22.2 µM (inactive) | 36.2 µM (inactive) | 31.8 | 95.9 µM (inactive) | 36.6 µM (inactive) | 47.5 µM (inactive) | 29.1 µM (inactive) | 39.5 µM (inactive) | 48.2 µM (inactive) | 39.3 µM (inactive) | 97.7 µM (inactive) | 16 µM (inactive) |
| O=c1cc(-c2ccccc2)[nH]c2cccc(S)c12 | 0.344 µM (active) | 0.465 µM (active) | 0.375 µM (active) | 13.6 µM (inactive) | 0.406 µM (active) | 0.0762 µM (active) | 0.564 µM (active) |  | 0.37 µM (active) | 0.0246 µM (active) | 0.344 | 0.182 µM (active) | 0.288 µM (active) | > 100 µM (inactive) | > 100 µM (inactive) | 0.44 µM (active) | 0.202 µM (active) | 1.25 µM (inactive) | 0.205 µM (active) | 0.0944 µM (active) |
| C#CCOC(=O)C(=[N+]=[N-])C(=O)CC(C)C | > 10 µM (inactive) | > 10 µM (inactive) | > 10 µM (inactive) | > 10 µM (inactive) | > 10 µM (inactive) | > 10 µM (inactive) | > 10 µM (inactive) |  | > 10 µM (inactive) | > 10 µM (inactive) | > 10 | > 10 µM (inactive) | > 10 µM (inactive) | > 10 µM (inactive) | > 10 µM (inactive) | > 10 µM (inactive) | > 10 µM (inactive) | > 10 µM (inactive) | > 10 µM (inactive) | > 10 µM (inactive) |
| CN(C)c1ccc2c3c(c(=O)oc2c1)CCC3 | 54.7 µM (inactive) | 28.2 µM (inactive) | > 100 µM (inactive) | > 100 µM (inactive) | 85.5 µM (inactive) | 82.8 µM (inactive) | > 100 µM (inactive) |  | 27.2 µM (inactive) | 97.9 µM (inactive) | 50.7 | 88.3 µM (inactive) | 38.7 µM (inactive) | > 100 µM (inactive) | 9.14 µM (inactive) | 51.3 µM (inactive) | 44.8 µM (inactive) | 34.8 µM (inactive) | 36.8 µM (inactive) | 36.8 µM (inactive) |
